Values of other authors in patent publication US20260009077A1, “COMPOSITIONS AND METHODS FOR TREATING HYPOTHYROIDISM” (THE UNIVERSITY OF CHICAGO, priority 2022, published 2026).

SMILES: N[C@@H](Cc1cc(I)c(Oc2cc(I)c(O)c(I)c2)c(I)c1)C(=O)O [levothyroxine]
- proportion of patients noticing reemergence of hypothyroid symptoms (after switch from T4 and T3 containing treatment to T4 only, despite appropriate T4 doses): 15-20%
- patients in whom treatment restores normal life (hypothyroidism patients, daily tablets, standard of care): at least 80%
